Data as given in patent publication US20110015123A1, “Modulation of GLUT4 Gene Promoter activity BY AHNAK” (Technion Research and Developmet Foundation Ltd., priority 2008, published 2011).
Entries after “also recorded” stand apart in the source; their conditions may differ.

Tests used:
[1] = test system: GLUT4 promoter; experiment: GLUT4-P-Luc promoter reporter (luciferase) assay in primary rat adipocytes (PRA); type: cell-based
From the text: (§1) Expression vectors and luciferase promoter reporters. Expression vectors, pC-DY, pM-DY, and pN-DY, baring the C-terminus, middle domain, and N-terminus of human AHNAK in c-myc-tagged pCDNA3 (Hashimoto, Amagai et al. 1993; Nie, Ning et al. 2000), were a generous gift of Dr. Hashimoto (Department of Dermatology, Kurume University School of Medicine, Kurume, Fukuoka, Japan). The rat GLUT4 promoter (GLUT4-P) reporter and a derived series of progressively 5′-deleted promoter reporters, have been described by us previously (Armoni, Harel et al. 2005). A control synthetic reporter 3×IRS-LUC, containing three repeats of an insulin response element consensus motif in pGL2 was provided by Dr. Eric Tang (Tang, Nunez et al. 1999).
Cell cultures and transient expression assays. […]
(§2) PRA were transfected by electroporation with 2 μg of GLUT4 promoter reporter DNA, 0-5 μg of expression vectors and 0.5 μg of pCMV-β-galactosidase. […] Within each experiment, values were expressed as a percentage of the basal GLUT4 promoter activity, i.e. the activity obtained in cells transfected with promoter reporter alone. Cell viability was assessed by trypan blue exclusion. Each experiment was repeated three to four times, with each sample analyzed in quadruplicates.

[2] = test system: insulin response element (3×IRS-LUC); experiment: 3×IRS-LUC synthetic promoter reporter assay in PRA; type: cell-based, rat; conditions: PRA transfected with AHNAK fragments, 24 hrs
From the text: as §1, §2

[3] = test system: AHNAK; experiment: Immunofluorescence of AHNAK cellular distribution in HEK cells; type: cell-based, human; conditions: serum free medium, 24 hrs, insulin 100 nM alone or with LY 20 μM
Description: Immunofluorescence Studies—Human embryonic kidney (HEK) cells were plated in 60 mm plates at a density of 500,000 cells/plate. Cells were incubated for 24 h at 37° C. The next day, cells were washed with magnesium-containing phosphate-buffered saline and transferred to serum-deprived medium supplemented with 2% BSA either with or without Insulin (100 nM). After 24 h, the cells were fixed in 4% paraformaldehyde and stained for indirect immunofluorescence using an anti-AHNAK primary antibody (SC 81048), followed by a FITC-conjugated goat anti-mouse secondary antibody. The nuclei were stained by DAPI.

[4] = test system: GLUT4 promoter; experiment: GLUT4-P-Luc promoter reporter (luciferase) assay in H9C2 myotubes; type: cell-based, rat; conditions: 0-100 μM arachidonic acid, 24 h
[5] = test system: GLUT4 protein; experiment: GLUT4 protein level in PRA by Western immunoblotting; type: cell-based, rat; conditions: NT-transfected PRA, arachidonic acid 100 μM, 24 hrs
Description: AHNAK siRNA. Double-stranded RNAs (dsRNAs) targeting the rat AHNAK were purchased from Dharmacon (Dharmacon, Inc, California, USA). The siRNA (On TARGETplus SMARTpool L-101672-01-0010, Rat Ahnak, XM—574618) used in the experiments is a mixture consisting of the siRNAs of the sequences set forth in SEQ ID NO:1 to SEQ ID NO:8.
PRA were transfected by electroporation with the dsRNA (40 ng in PBS, pH=7.4) as described above. After 24 hrs, cells were harvested and total RNA and protein were obtained. Scrambled non targeting duplex RNA (NT-siRNA) was transfected as control. AHNAK silencing was assessed by QRT-PCR, and normalized to 18S rRNA. GLUT4 expression at protein level was assessed by Western immunoblotting as detailed by us before (Armoni et al., 2002; Armoni et al., 2005).

effect on AHNAK fragment repression of GLUT4-P ([1]; PRA transfected with AHNAK fragments, 24 hrs)	Compound	effect on AHNAK repression of 3×IRS-LUC reporter [2]	AHNAK subcellular distribution [3]	effect on transcription from GLUT4-P [4]	effect on transcription from GLUT4-P ([1]; PRA, ambient arachidonic acid levels, 24 h)	decrease in GLUT4 protein levels [5]
partially rescued the activity	insulin: Insulin purchased from SIGMA, Israel	partially rescued the activity; also recorded: curtailed this repression	most of it translocates to the cytosel	–	–	–
–	CCCCC/C=C\C/C=C\C/C=C\C/C=C\CCCC(=O)O [arachidonic acid]	–	–	dose-dependently repressed transcription from GLUT4-P	dose-dependently repressed transcription from GLUT4-P	~40%±3
–	O=c1cc(N2CCOCC2)oc2c(-c3ccccc3)cccc12 [LY]	–	AHNAK nuclear re-distribution	–	–	–
